Assay results from ChEMBL document CHEMBL4251553, “Synthesis, anticancer evaluation and pharmacokinetic study of novel 10-O-phenyl ethers of dihydroartemisinin” (Eur J Med Chem, 2017).

Assays:
Format in all cases: functional
MDA-MB-231 = assay: Antiproliferative activity against human MDA-MB-231 cells after 96 hrs by MTT assay; details: MDA-MB-231, 96 h
MCF7 = assay: Antiproliferative activity against human MCF7 cells after 96 hrs by MTT assay; details: MCF7, 96 h
NCI/ADR-RES = assay: Antiproliferative activity against human MCF7/ADR cells after 96 hrs by MTT assay
[1] = Selectivity ratio of GI50 for human MCF7 cells to GI50 for human MCF7/ADR cells

SMILES | GI50 (MDA-MB-231) | GI50 (MCF7) | GI50 (NCI/ADR-RES) | RatioGI50 [1]
CC(=O)N1N=C(c2ccc(O[C@H]3O[C@@H]4O[C@@]5(C)CC[C@H]6[C@H](C)CC[C@@H]([C@H]3C)[C@@]46OO5)cc2)CC1c1ccc(Cl)cc1 (stereo partly drawn) | 160 nM | 220 nM | 30 nM | 7.3
COc1ccc(C2CC(c3ccc(O[C@H]4O[C@@H]5O[C@@]6(C)CC[C@H]7[C@H](C)CC[C@@H]([C@H]4C)[C@@]57OO6)cc3)=NN2C(C)=O)c(OC)c1 (stereo partly drawn) | 240 nM | 500 nM | 25 nM | 20
COc1ccc(-c2cc(-c3ccc(O[C@@H]4O[C@@H]5O[C@@]6(C)CC[C@H]7[C@H](C)CC[C@@H]([C@H]4C)[C@@]57OO6)cc3)n[nH]2)cc1 | 1420 nM | 440 nM | 52 nM | 8.5
COc1cccc2c1C(=O)c1c(O)c3c(c(O)c1C2=O)C[C@@](O)(C(=O)CO)C[C@@H]3O[C@H]1C[C@H](N)[C@H](O)[C@H](C)O1.Cl [DOXORUBICIN HYDROCHLORIDE] | 120 nM | 54 nM | 540 nM | 0.1
COc1ccc(C2CC(c3ccc(O[C@@H]4O[C@@H]5O[C@@]6(C)CC[C@H]7[C@H](C)CC[C@@H]([C@H]4C)[C@@]57OO6)cc3)=NN2C(C)=O)c(OC)c1 (stereo partly drawn) | 580 nM | 380 nM | 58 nM | 6.6
C[C@H]1[C@H](Oc2ccc(-c3cc(-c4ccc(Br)cc4)[nH]n3)cc2)O[C@@H]2O[C@@]3(C)CC[C@H]4[C@H](C)CC[C@@H]1[C@@]24OO3 | 550 nM | 440 nM | 30 nM | 14.7
COc1ccc(-c2cc(-c3ccc(O[C@@H]4O[C@@H]5O[C@@]6(C)CC[C@H]7[C@H](C)CC[C@@H]([C@H]4C)[C@@]57OO6)cc3)n[nH]2)c(OC)c1 | 760 nM | 500 nM | 41 nM | 12.2
COc1ccc(C2CC(c3ccc(O[C@H]4O[C@@H]5O[C@@]6(C)CC[C@H]7[C@H](C)CC[C@@H]([C@H]4C)[C@@]57OO6)cc3)=NN2C(C)=O)cc1 (stereo partly drawn) | 500 nM | 320 nM | 28 nM | 11.4
C[C@H]1[C@@H](Oc2ccc(-c3cc(-c4ccc(Br)cc4)[nH]n3)cc2)O[C@@H]2O[C@@]3(C)CC[C@H]4[C@H](C)CC[C@@H]1[C@@]24OO3 | 410 nM | 340 nM | 33 nM | 10.3
COc1ccc(-c2cc(-c3ccc(O[C@H]4O[C@@H]5O[C@@]6(C)CC[C@H]7[C@H](C)CC[C@@H]([C@H]4C)[C@@]57OO6)cc3)n[nH]2)c(OC)c1 | 670 nM | 330 nM | 33 nM | 10
C[C@@H]1CC[C@H]2[C@@H](C)C(O)O[C@@H]3O[C@@]4(C)CC[C@@H]1[C@]32O4 (stereo partly drawn) |  | > 400000 nM |  | 
Oc1ccc(-c2cc(-c3ccccc3)n[nH]2)cc1 |  | 21200 nM | 18200 nM | 1.66
CC(=O)N1N=C(c2ccc(O[C@@H]3O[C@@H]4O[C@@]5(C)CC[C@H]6[C@H](C)CC[C@@H]([C@H]3C)[C@@]46OO5)cc2)CC1c1ccccc1 (stereo partly drawn) | 1230 nM | 570 nM | 50 nM | 14.2
